Test results from patent US12275718B2, “Small molecule inhibitors of galectin-3” (BRISTOL-MYERS SQUIBB COMPANY, priority 2018, dated 2025).

Target: His-tagged recombinant human Gal-3 (hGal-3) (Homo sapiens, UniProt P17931)
Test: Gal-3 HTRF assay (His-tagged hGal-3 / B-ASF)
Format: binding
Conditions: hGal-3 15 nM, B-ASF 15 nM, room temperature, three replicates
Description: • ASSAY BUFFER Composition: 25 mM HEPES, 100 mM NaCl, 0.005% Tween 20, 0.05% BSA prepared in sterile water (all reagents from Sigma) Controls: • Positive Control: 100% DMSO (1 μl)+His-tagged hGal-3 (20 μL)+B-ASF (20 μl)+Anti-His Terbium Antibody (5 μl)+Strep d2 Antibody (5 μl). • Negative Control: […] (1 μl)+His-tagged hGal-3 (20 μL)+Anti His Terbium Antibody (5 μl)+Strep d2 Aantibody (5 μl). Stocks Preparation:
PROTOCOL: The Gal-3 assays were performed in 384 white Opti plates in three replicates at room temperature with gentle shaking at 250-300 rpm From the original stocks, […] working stock concentrations of His-tagged recombinant human Gal-3 (hGal-3) and that of B-ASF were prepared. From the working stock, 20 μl of hGal-3 (15 nM) and 20 μl B-ASF (15 nM) were added to the plates. In Negative Control, only hGal-3 was added. A concentration range of 50× working stocks were prepared for the compounds in […]. Aliquots of 1 uL of the compounds were added to the wells and pre-incubated with 20 μl hGal-3 per well for 30 minutes Then 20 μl B-ASF were added and incubated for another 1 hour. To detect the signal, 5 μL (final conc. of 1.0 nM) terbium labelled Anti-His antibody was added and incubated for 30 min followed by adding 5 μL (final conc. of 20 nM) Streptavidin d2 and incubation for another 1 hour. The assay signal was detected using HTRF screen protocol (Excitation wavelength=340 nm, emission wavelength=615 nm/665 nm) on Envision 2104 Multilabel Reader. Data analysed using Toolset and Curve Master. Results are reported in the experimental section (IC50 in μM).

His-tagged recombinant human Gal-3 (hGal-3), sequence (P17931 whole entry): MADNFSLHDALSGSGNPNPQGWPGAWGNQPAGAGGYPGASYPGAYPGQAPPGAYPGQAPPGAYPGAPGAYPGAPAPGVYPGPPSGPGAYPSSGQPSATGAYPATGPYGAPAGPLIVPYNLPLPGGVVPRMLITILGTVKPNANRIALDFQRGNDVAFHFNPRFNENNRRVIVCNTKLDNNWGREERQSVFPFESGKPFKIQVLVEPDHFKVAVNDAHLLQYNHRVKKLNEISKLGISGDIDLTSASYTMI

IC50 [nM] | Structure (SMILES)
1 | Cc1nc(C2OC(CO)C(O)C(n3cc(-c4cc(F)c(F)c(F)c4)nn3)C2OCC(=O)NCCCCCNC(=O)COC2C(c3nc(C)nn3-c3cc(Cl)ccc3Cl)OC(CO)C(O)C2n2cc(-c3cc(F)c(F)c(F)c3)nn2)n(-c2cc(Cl)ccc2Cl)n1 (stereo not drawn) [Example 2]
10 | Cc1nc([C@H]2O[C@@H](CO)[C@@H](O)[C@@H](n3cc(-c4ccc(Cl)c(F)c4)nn3)[C@@H]2OCC(=O)NCCCCCNC(=O)CO[C@@H]2[C@@H](n3cc(-c4ccc(Cl)c(F)c4)nn3)[C@@H](O)[C@@H](CO)O[C@H]2c2nc(C)nn2-c2cc(Cl)ccc2Cl)n(-c2cc(Cl)ccc2Cl)n1 [Example 5]
1 | Cc1nc([C@H]2O[C@@H](CO)[C@@H](O)[C@@H](n3cc(-c4cc(F)c(Cl)c(F)c4)nn3)[C@@H]2OCC(=O)NCCCNC(=O)CO[C@@H]2[C@@H](n3cc(-c4cc(F)c(Cl)c(F)c4)nn3)[C@@H](O)[C@@H](CO)O[C@H]2c2nc(C)nn2-c2cc(Cl)ccc2C(F)(F)F)n(-c2cc(Cl)ccc2C(F)(F)F)n1 [Example 6]
1 | Cc1nc([C@H]2O[C@@H](CO)[C@@H](O)[C@@H](n3cc(-c4cc(F)c(Cl)c(F)c4)nn3)[C@@H]2OCC(=O)NCCCCNC(=O)CO[C@@H]2[C@@H](n3cc(-c4cc(F)c(Cl)c(F)c4)nn3)[C@@H](O)[C@@H](CO)O[C@H]2c2nc(C)nn2-c2cc(Cl)ccc2C(F)(F)F)n(-c2cc(Cl)ccc2C(F)(F)F)n1 [Example 7]
1 | Cc1nc([C@H]2O[C@@H](CO)[C@@H](O)[C@@H](n3cc(-c4cc(F)c(Cl)c(F)c4)nn3)[C@@H]2OCC(=O)NCCCCCNC(=O)CO[C@@H]2[C@@H](n3cc(-c4cc(F)c(Cl)c(F)c4)nn3)[C@@H](O)[C@@H](CO)O[C@H]2c2nc(C)nn2-c2cc(Cl)ccc2C(F)(F)F)n(-c2cc(Cl)ccc2C(F)(F)F)n1 [Example 8]
6 | Cc1nc([C@H]2O[C@@H](CO)[C@@H](O)[C@@H](n3cc(-c4cc(F)c(Cl)c(F)c4)nn3)[C@@H]2OCC(=O)NCCCCCCNC(=O)CO[C@@H]2[C@@H](n3cc(-c4cc(F)c(Cl)c(F)c4)nn3)[C@@H](O)[C@@H](CO)O[C@H]2c2nc(C)nn2-c2cc(Cl)ccc2Cl)n(-c2cc(Cl)ccc2Cl)n1 [Example 9]
10 | Cc1nc([C@H]2O[C@@H](CO)[C@@H](O)[C@@H](n3cc(-c4cc(F)c(Cl)c(F)c4)nn3)[C@@H]2OCC(=O)NCCCCCCCNC(=O)CO[C@@H]2[C@@H](n3cc(-c4cc(F)c(Cl)c(F)c4)nn3)[C@@H](O)[C@@H](CO)O[C@H]2c2nc(C)nn2-c2cc(Cl)ccc2Cl)n(-c2cc(Cl)ccc2Cl)n1 [Example 10]
1 | Cc1nc([C@H]2O[C@@H](CO)[C@@H](O)[C@@H](n3cc(-c4cc(F)c(Cl)c(F)c4)nn3)[C@@H]2OCC(=O)NCCCCCNC(=O)CO[C@@H]2[C@@H](n3cc(-c4cc(F)c(Cl)c(F)c4)nn3)[C@@H](O)[C@@H](CO)O[C@H]2c2nc(C)nn2-c2cc(Cl)ccc2Cl)n(-c2cc(Cl)ccc2Cl)n1 [Example 11]
1 | Cc1nc([C@H]2O[C@@H](CO)[C@@H](O)[C@@H](n3cc(-c4cc(F)c(Cl)c(F)c4)nn3)[C@@H]2OCC(=O)NCCCCNC(=O)CO[C@@H]2[C@@H](n3cc(-c4cc(F)c(Cl)c(F)c4)nn3)[C@@H](O)[C@@H](CO)O[C@H]2c2nc(C)nn2-c2cc(Cl)ccc2Cl)n(-c2cc(Cl)ccc2Cl)n1 [Example 12]
1 | Cc1nc([C@H]2O[C@@H](CO)[C@@H](O)[C@@H](n3cc(-c4cc(F)c(Cl)c(F)c4)nn3)[C@@H]2OCC(=O)NCCNC(=O)CO[C@@H]2[C@@H](n3cc(-c4cc(F)c(Cl)c(F)c4)nn3)[C@@H](O)[C@@H](CO)O[C@H]2c2nc(C)nn2-c2cc(Cl)ccc2Cl)n(-c2cc(Cl)ccc2Cl)n1 [Example 13]
5 | Cc1nc([C@H]2O[C@@H](CO)[C@@H](O)[C@@H](n3cc(-c4cc(F)c(Cl)c(F)c4)nn3)[C@@H]2OCC(=O)N(C)CCCCN(C)C(=O)CO[C@@H]2[C@@H](n3cc(-c4cc(F)c(Cl)c(F)c4)nn3)[C@@H](O)[C@@H](CO)O[C@H]2c2nc(C)nn2-c2cc(Cl)ccc2Cl)n(-c2cc(Cl)ccc2Cl)n1 [Example 15]
10000 | Cc1nc([C@H]2O[C@@H](CO)[C@@H](O)[C@@H](n3cc(-c4ccc(Cl)c(F)c4)nn3)[C@@H]2OCCCCCCCCCCO[C@@H]2[C@@H](n3cc(-c4ccc(Cl)c(F)c4)nn3)[C@@H](O)[C@@H](CO)O[C@H]2c2nc(C)nn2-c2cc(Cl)ccc2Cl)n(-c2cc(Cl)ccc2Cl)n1 [Example 16, (2R,3R,4S,5R,6S)-4-(4-(4-chloro-3-fluorophenyl)-1H-1,2,3-triazol-1-yl)-5-((10-(((2R,3S,4R,5S,6S)-4-(4-(4-chloro-3-fluorophenyl)-1H-1,2,3-triazol-1-yl)-2-(1-(2,5-dichlorophenyl)-3-methyl-1H-1,2,4-triazol-5-yl)-5-hydroxy-6-(hydroxymethyl)tetrahydro-2H-pyran-3-yl)oxy)decyl)oxy)-6-(1-(2,5-dichlorophenyl)-3-methyl-1H-1,2,4-triazol-5-yl)-2-(hydroxymethyl)tetrahydro-2H-pyran-3-ol]
2000 | Cc1nc([C@H]2O[C@@H](CO)[C@@H](O)[C@@H](n3cc(-c4cc(F)c(Cl)c(F)c4)nn3)[C@@H]2OCCCCCCCCO[C@@H]2[C@@H](n3cc(-c4cc(F)c(Cl)c(F)c4)nn3)[C@@H](O)[C@@H](CO)O[C@H]2c2nc(C)nn2-c2cc(Cl)ccc2Cl)n(-c2cc(Cl)ccc2Cl)n1 [Example 17, (2R,3R,4S,5R,6S)-4-(4-(4-chloro-3,5-difluorophenyl)-1H-1,2,3-triazol-1-yl)-5-((8-(((2R,3S,4R,5S,6S)-4-(4-(4-chloro-3,5-difluorophenyl)-1H-1,2,3-triazol-1-yl)-2-(1-(2,5-dichlorophenyl)-3-methyl-1H-1,2,4-triazol-5-yl)-5-hydroxy-6-(hydroxymethyl)tetrahydro-2H-pyran-3-yl)oxy)octyl)oxy)-6-(1-(2,5-dichlorophenyl)-3-methyl-1H-1,2,4-triazol-5-yl)-2-(hydroxymethyl)tetrahydro-2H-pyran-3-ol]
19 | Cc1nc(C2OC(CO)C(O)C(n3cc(-c4cc(F)c(F)c(F)c4)nn3)C2OC(=O)NCCCCNC(=O)OC2C(c3nc(C)nn3-c3cc(Cl)ccc3Cl)OC(CO)C(O)C2n2cc(-c3cc(F)c(F)c(F)c3)nn2)n(-c2cc(Cl)ccc2Cl)n1 [Example 18, (2R,3S,4R,5S,6S)-2-(1-(2,5-dichlorophenyl)-3-methyl-11H-1,2,4-triazol-5-yl)-5-hydroxy-6-(hydroxymethyl)-4-(4-(3,4,5-trifluorophenyl)-1H-1,2,3-triazol-1-yl)tetrahydro-2H-pyran-3-yl ((2S,3R,4S,5R,6R)-2-(1-(2,5-dichlorophenyl)-3-methyl-1H-1,2,4-triazol-5-yl)-5-hydroxy-6-(hydroxymethyl)-4-(4-(3,4,5-trifluorophenyl)-1H-1,2,3-triazol-1-yl)tetrahydro-2H-pyran-3-yl) butane-1,4-diyldicarbamate]
110 | Cc1nc([C@H]2O[C@@H](CO)[C@@H](O)[C@@H](n3cc(-c4cc(F)c(Cl)c(F)c4)nn3)[C@@H]2OC(=O)NCCCNC(=O)O[C@@H]2[C@@H](n3cc(-c4cc(F)c(Cl)c(F)c4)nn3)[C@@H](O)[C@@H](CO)O[C@H]2c2nc(C)nn2-c2cc(Cl)ccc2Cl)n(-c2cc(Cl)ccc2Cl)n1 [Example 19, (2R,3S,4R,5S,6S)-4-(4-(4-chloro-3,5-difluorophenyl)-1H-1,2,3-triazol-1-yl)-2-(1-(2,5-dichlorophenyl)-3-methyl-1H-1,2,4-triazol-5-yl)-5-hydroxy-6-(hydroxymethyl)tetrahydro-2H-pyran-3-yl ((2S,3R,4S,5R,6R)-4-(4-(4-chloro-3,5-difluorophenyl)-1H-1,2,3-triazol-1-yl)-2-(1-(2,5-dichlorophenyl)-3-methyl-1H-1,2,4-triazol-5-yl)-5-hydroxy-6-(hydroxymethyl)tetrahydro-2H-pyran-3-yl) propane-1,3-diyldicarbamate]
2 | Cc1nc([C@H]2O[C@@H](CO)[C@@H](O)[C@@H](n3cc(-c4cc(F)c(Cl)c(F)c4)nn3)[C@@H]2OCC(=O)N(C)CCN(C)C(=O)CO[C@@H]2[C@@H](n3cc(-c4cc(F)c(Cl)c(F)c4)nn3)[C@@H](O)[C@@H](CO)O[C@H]2c2nc(C)nn2-c2cc(Cl)ccc2Cl)n(-c2cc(Cl)ccc2Cl)n1 [Example 21]
4 | Cc1nc([C@H]2O[C@@H](CO)[C@@H](O)[C@@H](n3cc(-c4cc(F)c(Cl)c(F)c4)nn3)[C@@H]2OCC(=O)N2CCN(C(=O)CO[C@@H]3[C@@H](n4cc(-c5cc(F)c(Cl)c(F)c5)nn4)[C@@H](O)[C@@H](CO)O[C@H]3c3nc(C)nn3-c3cc(Cl)ccc3Cl)CC2)n(-c2cc(Cl)ccc2Cl)n1 [Example 22]
4 | Cc1nc([C@H]2O[C@@H](CO)[C@@H](O)[C@@H](n3cc(-c4cc(F)c(Cl)c(F)c4)nn3)[C@@H]2OCC(=O)N2CCCN(C(=O)CO[C@@H]3[C@@H](n4cc(-c5cc(F)c(Cl)c(F)c5)nn4)[C@@H](O)[C@@H](CO)O[C@H]3c3nc(C)nn3-c3cc(Cl)ccc3Cl)CC2)n(-c2cc(Cl)ccc2Cl)n1 [Example 23]
